Drawing on US20260062422A1 (Halda Therapeutics OpCo, Inc., priority 2022, published 2026), this text covers GI50 for 22 compounds.

One assay deals with T47D cells. In words: Cellular growth inhibition assay for T47D cells, CellTiter-Glo. Conditions: Homo sapiens, T47D, 72 h, 72 hours treatment, CellTiter-Glo 2.0 cell viability. It is filed as cell-based, human. The method in brief:
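Luminescence from CellTiter-Glo 2.0 after 72 h of compound exposure gives the viability signal. Cells grew in insulin-supplemented (0.2 units/mL) DMEM with 10% FBS and were treated one day after seeding at 0.5% DMSO. GI50 values come from four-parameter nonlinear regression.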
(In general: ATP-based viability assays read luminescence as a measure of living cells.)

The next assay relates to VCaP cells. Briefly: Cellular growth inhibition assay for VCaP cells, CellTiter-Glo. It is filed as cell-based, human. Conditions: 72 hours treatment, CellTiter-Glo 2.0. The method in brief: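 GI50 values come from four-parameter curve fits of luminescence data normalized to a zero baseline. Compound, in medium with 0.5% DMSO, was added one day after plating and left for 72 h before CellTiter-Glo 2.0 addition.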

Assay [1] relates to T-Rex 293 cell line SC3 cells having increased expression of androgen receptor protein due to exposure to doxycycline. In words: Cellular growth inhibition, T-Rex 293 SC3 cells with doxycycline (androgen receptor induced), CellTiter-Glo. Conditions: 72 h, T-Rex 293 SC3 cells with 10 ng/mL doxycycline (increased androgen receptor expression). It is filed as cell-based. The method in brief: (§1)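 SC3 is a T-Rex 293 clone stably transfected with wild-type androgen receptor in pcDNA4/TO, inducible by 10 ng/mL doxycycline. Cells were grown in phenol red-free DMEM with 10% charcoal-dextran FBS, with or without doxycycline, dosed 24 h after seeding (0.5% DMSO) for 72 h. Viability was read by CellTiter-Glo 2.0 luminescence and GI50 obtained from four-parameter fits.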

Assay [2] relates to T-Rex 293 cell line SC3 cells lacking increased expression of androgen receptor protein. In words: Cellular growth inhibition, T-Rex 293 SC3 cells without doxycycline, CellTiter-Glo. It is filed as cell-based. Conditions: 72 h, T-Rex 293 SC3 cells not exposed to doxycycline, CellTiter-Glo 2.0. The method in brief: as §1

As a reminder, the GI50 is the concentration giving 50% growth inhibition. A high value points to lower sensitivity of the cells.

Take `Cc1sc2c(c1C)C(c1ccc([C@H]3CCN(C(=O)[C@H]4CCCN(c5ncc(C(=O)N[C@H]6C(C)(C)[C@H](Oc7ccc(C#N)c(Cl)c7)C6(C)C)cn5)C4)C3)cc1)=N[C@@H](Cc1ncco1)c1nnc(C)n1-2` [Compound I-387]: the GI50 is < 500 nM in the assay with T47D cells; < 500 nM in the assay on VCaP cells (Homo sapiens, VCaP, 72 h); < 500 nM in assay [1]; 500 to 1500 nM in assay [2].
As to `Cc1sc2c(c1C)C(c1ccc([C@@H]3CCCN(c4ncc(C(=O)N[C@H]5C(C)(C)[C@H](Oc6ccc(C#N)c(Cl)c6)C5(C)C)cn4)C3)cc1)=N[C@@H](Cc1ncco1)c1nnc(C)n1-2` [Compound I-295], the 50% growth inhibitory concentration (GI50) was < 500 nM in the assay on T47D cells; < 500 nM in the assay on VCaP cells (Homo sapiens, VCaP, 72 h); < 500 nM in assay [1]; < 500 nM in assay [2].
With `Cc1sc2c(c1C)C(c1ccc(C=C3CC4(CCCN(c5ncc(C(=O)N[C@H]6C(C)(C)[C@H](Oc7ccc(C#N)c(Cl)c7)C6(C)C)cn5)C4)C3)cc1)=N[C@@H](Cc1ncco1)c1nnc(C)n1-2` [Compound I-225, N-[3-(3-chloro-4-cyano-phenoxy)-2,2,4,4-tetramethyl-cyclobutyl]-2-[2-[[4-[(9S)-4,5,13-trimethyl-9-(oxazol-2-ylmethyl)-3-thia-1,8,11,12-tetrazatricyclo[8.3.0.02,6]trideca-2(6),4,7,10,12-pentaen-7-yl]phenyl]methylene]-6-azaspiro[3.5]nonan-6-yl]pyrimidine-5-carboxamide], the GI50 in the assay with T47D cells is 500 to 1500 nM; in the assay with VCaP cells (Homo sapiens, VCaP, 72 h), 1500 to 3000 nM; in assay [1] it was < 500 nM; in assay [2] it was 500 to 1500 nM.
Turning to `Cc1sc2c(c1C)C(c1ccc(OC3CC4(C3)CN(c3ncc(C(=O)N[C@H]5C(C)(C)[C@H](Oc6ccc(C#N)c(Cl)c6)C5(C)C)cn3)C4)cc1)=N[C@H](Cc1ncco1)c1nnc(C)n1-2` [Compound I-199], the concentration for 50% growth inhibition (GI50) in the assay on T47D cells is < 500 nM; in the assay with VCaP cells (Homo sapiens, VCaP, 72 h) it was < 500 nM; in assay [1], < 500 nM; in assay [2], < 500 nM.
For the compound `Cc1sc2c(c1C)C(c1ccc([C@H]3CCN(C(=O)[C@@H]4CCCN(c5ncc(C(=O)N[C@H]6C(C)(C)[C@H](Oc7ccc(C#N)c(Cl)c7)C6(C)C)cn5)C4)C3)cc1)=N[C@@H](Cc1ncco1)c1nnc(C)n1-2` [Compound I-384], the 50% growth inhibitory concentration (GI50) with T47D cells was < 500 nM; in the assay on VCaP cells (Homo sapiens, VCaP, 72 h) it was < 500 nM; in assay [1], < 500 nM; in assay [2], < 500 nM.
Consider `Cc1sc2c(c1C)C(c1ccc(O[C@H]3COC4(CCN(c5ncc(C(=O)N[C@H]6C(C)(C)[C@H](Oc7ccc(C#N)c(Cl)c7)C6(C)C)cn5)C4)C3)cc1)=N[C@@H](Cc1ncco1)c1nnc(C)n1-2` (stereo partly shown) [Compound I-195], for which the GI50 in the assay with T47D cells was < 500 nM; in the assay on VCaP cells (Homo sapiens, VCaP, 72 h) it was < 500 nM; in assay [1], < 500 nM; in assay [2], < 500 nM.
For `Cc1sc2c(c1C)C(c1ccc(O[C@H]3C[C@H](OC4CCN(c5ncc(C(=O)N[C@H]6C(C)(C)[C@H](Oc7ccc(C#N)c(Cl)c7)C6(C)C)cn5)CC4)C3)cc1)=N[C@@H](Cc1ncco1)c1nnc(C)n1-2` [Compound I-190], the GI50 with T47D cells was < 500 nM; in the assay on VCaP cells (Homo sapiens, VCaP, 72 h), < 500 nM; in assay [1] it was < 500 nM; in assay [2], > 3000 nM.
With `Cc1sc2c(c1C)C(c1ccc(OC3CC4(CCN(c5ccc(C(=O)N[C@H]6C(C)(C)[C@H](Oc7ccc(C#N)c(Cl)c7)C6(C)C)cn5)CC4)C3)cc1)=N[C@@H](Cc1ncco1)c1nnc(C)n1-2` [Compound I-170], the GI50 in the assay with T47D cells was < 500 nM; with VCaP cells (Homo sapiens, VCaP, 72 h) it was < 500 nM; in assay [1] it was < 500 nM; in assay [2], > 3000 nM.
For the compound `CCNC(=O)C[C@@H]1N=C(c2ccc(OC3CC(N(C)C4CCN(c5ncc(C(=O)N[C@H]6C(C)(C)[C@H](Oc7ccc(C#N)c(Cl)c7)C6(C)C)cn5)CC4)C3)cc2)c2c(sc(C)c2C)-n2c(C)nnc21` (stereo partly shown) [Compound I-82], the concentration for 50% growth inhibition (GI50) was < 500 nM in the assay on T47D cells; 500 to 1500 nM in the assay with VCaP cells (Homo sapiens, VCaP, 72 h); < 500 nM in assay [1]; 500 to 1500 nM in assay [2].
In the case of `Cc1sc2c(c1C)C(c1ccc(NC[C@@H]3CN(c4ncc(C(=O)N[C@H]5C(C)(C)[C@H](Oc6ccc(C#N)c(Cl)c6)C5(C)C)cn4)CCO3)cc1)=N[C@@H](Cc1ncco1)c1nnc(C)n1-2` [Compound I-646], the GI50 is < 500 nM in the assay on T47D cells; < 500 nM in the assay with VCaP cells (Homo sapiens, VCaP, 72 h); < 500 nM in assay [1]; < 500 nM in assay [2].
In the case of `Cc1sc2c(c1C)C(c1ccc(C[C@H]3CC[C@@H]4CN(c5ncc(C(=O)N[C@H]6C(C)(C)[C@H](Oc7ccc(C#N)c(Cl)c7)C6(C)C)cn5)CCN4C3)cc1)=C[C@H](Cc1ncco1)c1nnc(C)n1-2` [Compound I-306], the GI50 in the assay with T47D cells was < 500 nM; in the assay on VCaP cells (Homo sapiens, VCaP, 72 h), < 500 nM; in assay [1], < 500 nM; in assay [2], < 500 nM.
Regarding `Cc1sc2c(c1C)C(c1ccc(OCCOC3CCN(c4ncc(C(=O)N[C@H]5C(C)(C)[C@H](Oc6ccc(C#N)c(Cl)c6)C5(C)C)cn4)CC3)cc1)=N[C@@H](CC(=O)NC(C)C)c1nnc(C)n1-2` [Compound I-65], the concentration for 50% growth inhibition (GI50) is 500 to 1500 nM in the assay with T47D cells; < 500 nM with VCaP cells (Homo sapiens, VCaP, 72 h); < 500 nM in assay [1]; < 500 nM in assay [2].
Consider `CC[C@@H]1N=C(c2ccc(N3CC(CC4CCN(c5cnc(C(=O)N[C@H]6C(C)(C)[C@H](Oc7ccc(C#N)c(Cl)c7)C6(C)C)cn5)CC4)C3)cc2)c2c(sc(C)c2C)-n2c(C)nnc21` [Compound I-594], for which the GI50 with T47D cells is 1500 to 3000 nM; in the assay with VCaP cells (Homo sapiens, VCaP, 72 h) it was > 3000 nM; in assay [1] it was > 3000 nM; in assay [2] it was > 3000 nM.
With `Cc1sc2c(c1C)C(c1ccc(C#CC3CC4(C3)CN(c3ncc(C(=O)N[C@H]5C(C)(C)[C@H](Oc6ccc(C#N)c(Cl)c6)C5(C)C)cn3)C4)cc1)=N[C@@H](C)c1nnc(C)n1-2` [Compound I-349], the GI50 in the assay with T47D cells is < 500 nM; with VCaP cells (Homo sapiens, VCaP, 72 h), < 500 nM; in assay [1] it was < 500 nM; in assay [2], < 500 nM.
Consider `CCNC(=O)C[C@@H]1N=C(c2ccc(N3CCC(OC4CN(c5ncc(C(=O)N[C@H]6C(C)(C)[C@H](Oc7ccc(C#N)c(Cl)c7)C6(C)C)cn5)C4)CC3)cc2)c2c(sc(C)c2C)-n2c(C)nnc21` [Compound I-118], for which the GI50 is < 500 nM in the assay on T47D cells; < 500 nM with VCaP cells (Homo sapiens, VCaP, 72 h); < 500 nM in assay [1]; 500 to 1500 nM in assay [2].
Turning to `Cc1sc2c(c1C)C(c1ccc(CCCOC3CCN(c4ncc(C(=O)N[C@H]5C(C)(C)[C@H](Oc6ccc(C#N)c(Cl)c6)C5(C)C)cn4)CC3)cc1)=N[C@H](Cc1ccccn1)c1nnc(C)n1-2` [Compound I-213], the GI50 in the assay with T47D cells was < 500 nM; in the assay on VCaP cells (Homo sapiens, VCaP, 72 h) it was < 500 nM; in assay [1] it was < 500 nM; in assay [2], > 3000 nM.
Consider `Cc1sc2c(c1C)C(c1ccc(O[C@@H]3COC4(C3)CN(c3ncc(C(=O)N[C@H]5C(C)(C)[C@H](Oc6ccc(C#N)c(Cl)c6)C5(C)C)cn3)C4)cc1)=N[C@@H](Cc1ncco1)c1nnc(C)n1-2` [Compound I-182], for which the GI50 was < 500 nM in the assay with T47D cells; < 500 nM in the assay with VCaP cells (Homo sapiens, VCaP, 72 h); < 500 nM in assay [1]; < 500 nM in assay [2].
As for `Cc1sc2c(c1C)C(c1ccc(CCN3CC[C@@]4(C3)CN(c3ncc(C(=O)N[C@H]5C(C)(C)[C@H](Oc6ccc(C#N)c(Cl)c6)C5(C)C)cn3)CC(F)(F)C4)cc1)=N[C@@H](Cc1ncco1)c1nnc(C)n1-2` [Compound I-425], the concentration for 50% growth inhibition (GI50) is < 500 nM with T47D cells; < 500 nM with VCaP cells (Homo sapiens, VCaP, 72 h); < 500 nM in assay [1]; > 3000 nM in assay [2].
In the case of `Cc1sc2c(c1C)C(c1ccc([C@H]3C[C@H](C[C@@H]4CCCN(c5ncc(C(=O)N[C@H]6C(C)(C)[C@H](Oc7ccc(C#N)c(Cl)c7)C6(C)C)cn5)C4)C3)cc1)=N[C@@H](Cc1ncco1)c1nnc(C)n1-2` [Compound I-402], the concentration for 50% growth inhibition (GI50) in the assay with T47D cells was < 500 nM; in the assay on VCaP cells, 500 to 1500 nM; in assay [1] it was < 500 nM; in assay [2], > 3000 nM.
Regarding `CCNC(=O)C[C@@H]1N=C(c2ccc(OCCN(C)c3ncc(C(=O)N[C@H]4C(C)(C)[C@H](Oc5ccc(C#N)c(Cl)c5)C4(C)C)cn3)cc2)c2c(sc(C)c2C)-n2c(C)nnc21` [Compound I-80], the GI50 was 500 to 1500 nM with T47D cells; < 500 nM in the assay on VCaP cells (Homo sapiens, VCaP, 72 h); < 500 nM in assay [1]; 500 to 1500 nM in assay [2].
For `Cc1sc2c(c1C)C(c1ccc(N3CCC[C@@H](OCCc4ncc(C(=O)N[C@H]5C(C)(C)[C@H](Oc6ccc(C#N)c(Cl)c6)C5(C)C)cn4)C3)cc1)=N[C@@H](Cc1ncco1)c1nnc(C)n1-2` [Compound I-451], the GI50 in the assay on T47D cells is 500 to 1500 nM; with VCaP cells (Homo sapiens, VCaP, 72 h), < 500 nM; in assay [1] it was < 500 nM; in assay [2], 500 to 1500 nM.
Turning to `Cc1sc2c(c1C)C(c1ccc(CCCOC3CCN(c4ncc(C(=O)N[C@H]5C(C)(C)[C@H](Oc6ccc(C#N)c(Cl)c6)C5(C)C)cn4)CC3)cc1)=N[C@@H](Cc1ccccn1)c1nnc(C)n1-2` [Compound I-212, N-[3-(3-chloro-4-cyano-phenoxy)-2,2,4,4-tetramethyl-cyclobutyl]-2-[4-[3-[4-[(9S)-4,5,13-trimethyl-9-(2-pyridylmethyl)-3-thia-1,8,11,12-tetrazatricyclo[8.3.0.02,6]trideca-2(6),4,7,10,12-pentaen-7-yl]phenyl]propoxy]-1-piperidyl]pyrimidine-5-carboxamide], the GI50 in the assay with T47D cells was < 500 nM; in the assay on VCaP cells (Homo sapiens, VCaP, 72 h), < 500 nM; in assay [1] it was < 500 nM; in assay [2], > 3000 nM.
